Laboratory results taken from patent publication US5876946A, “High-throughput assay” (Pharmacopeia, Inc., priority 1997, dated 1999).

Columns and labels:
[1] = target: T1, neurokinin-2 receptor (NK2R/CHO cells) (Homo sapiens, UniProt P21452); assay: Displacement of Cy5-NKA bound to NK2R/CHO cells by SR48,968; type: binding
T1 construct: expressed in transfected cells; host or cells: CHO cells (NK2R/CHO)
T1 sequence (P21452 1-398): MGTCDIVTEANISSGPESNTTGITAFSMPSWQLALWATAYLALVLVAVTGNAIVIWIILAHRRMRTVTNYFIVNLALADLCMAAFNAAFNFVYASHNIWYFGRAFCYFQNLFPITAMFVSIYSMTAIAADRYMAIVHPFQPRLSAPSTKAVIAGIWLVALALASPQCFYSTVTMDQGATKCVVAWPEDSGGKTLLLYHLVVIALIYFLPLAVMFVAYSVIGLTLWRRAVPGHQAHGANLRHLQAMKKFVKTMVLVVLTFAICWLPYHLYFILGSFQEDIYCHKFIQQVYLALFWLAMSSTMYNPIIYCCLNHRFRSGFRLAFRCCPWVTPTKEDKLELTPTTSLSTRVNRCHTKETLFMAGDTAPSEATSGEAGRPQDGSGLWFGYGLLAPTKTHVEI
Description: (a) Cells expressing neurokinin-2 receptor (NK2R/CHO) were obtained.
A culture of NK2R/CHO cells, near confluence, was washed with 12 mL DPBS(Mg^+2 & Ca^+2 free), trypsinized by adding trypsin (2 mL/T-25 flask), incubating at 37° C. for about 5 min, then quenching with 10 mL media. Cells were then counted, and diluted to the desired final concentration of cells (5,000 cells/25 μL). […] The plate was covered and wrapped in aluminum foil to protect from light and left to shake for 1 hr at room temperature. For each sample, 25 μL was removed, placed in an IMAGN 2000™ capillary, and read using IMAGN™ software (Biometric Imaging, Inc.) The sample was allowed to settle until the cells rested on the bottom of the well. The time require for settling was typically 10 minutes.
SR-48,968 is a known inhibitor of the binding of NKA neurokinin 2 receptor.
"Max" and "min" refer to the maximum and minimum fluorescence for the relevant value.
% Control=((Value-Min)/(Max-Min))×100

IL-8 receptor = assay: conventional [^125 I]IL-8 ligand displacement assay; type: binding

| IC50 [1] | estimated Ki ([1]; displacement of Cy5-NKA) | Hill coefficient ([1]; displacement of Cy5-NKA by SR48.968) | Compound | Ki (IL-8 receptor) |
| --- | --- | --- | --- | --- |
| 0.575 nM | ~0.29 nM | 0.996 | CC(=O)NC1(c2ccccc2)CCN(CCC(CN(C)C(=O)c2ccccc2)c2ccc(Cl)c(Cl)c2)CC1 (stereo not shown) [SR48.968] |  |
|  |  |  | hIL(S72C)-Cy5: Human interleukin-8, Ser72→Cys mutant (hIL-8(S72C)), labelled with monofunctional Cy5-iodoacetamide | 2 nM |
